Values of other authors as cited in patent US20130158028A1, “USE OF STIMULATORS AND ACTIVATORS OF SOLUBLE GUANYLATE CYCLASE FOR TREATING SICKLE-CELL ANEMIA AND CONSERVING BLOOD SUBSTITUTES” (BAYER INTELLECTUAL PROPERTY GMBH, priority 2010, published 2013).

Settings: repeated reports

For `CN1CC(=O)N2[C@H](c3ccc4c(c3)OCO4)c3[nH]c4ccccc4c3C[C@@H]2C1=O` [tadalafil, (6R,12aR)-2,3,6,7,12,12a-hexahydro-2-methyl-6-(3,4-methylenedioxyphenyl)pyrazino (1′,2′:1,6) pyrido(3,4-b)indole-1,4-dione], the “incidence of back pain” value is given as “increased incidence of back pain”.
